Results on 17 compounds are retold here after PubChem BioAssay (NCI).

“And” between values parts separate entries of the source, which are not always exact repeats. Equal values may be shown once.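 Protocol summary: plate cells (96-well), add compound at 5 concentrations, incubate 48 h, interpolate endpoints linearly. At the GI50, growth is halved. TGI marks complete inhibition of growth.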

One assay deals with UACC-62 melanoma. In words: NCI anticancer screen, dose series, 48 h.
For `CC(C)(S)C(N)C(=O)O` (stereo not drawn), the GI50 was 4760 µM and the TGI is over 5000 µM.
For `O=C1c2ccccc2-c2c1c1ccccc1c(=O)n2CCCCl`, in that order: 6.75 µM and 23.9 µM.
In the case of `CN1C(=O)/C(=C/c2c(Cl)n(C)c3ccccc23)c2ccccc21`, the GI50 was 2.8 µM.
As for `Cc1nc(-[n+]2nc(-c3ccncc3)nn2-c2ccccc2)sc1C`, the TGI is over 100 µM.
Take `COc1cc2c3c(n(CCCOC(=O)C(F)(F)F)c(=O)c2cc1OC)-c1cc2c(cc1C3=O)OCO2`: the GI50 was under 0.01 µM.
On to `CCOC(=O)/C=C(/C)Sc1cc(O)c2ccccc2c1O`, for which the GI50 is 3.67 µM and the TGI worked out at 14 µM.
For `N=C(N)c1ccc2nc(-c3cc(CC(=O)N[C@@H](CC(=O)O)C(=O)O)cc(-c4cc(S(N)(=O)=O)ccc4O)c3O)[nH]c2c1`, in that order: over 100 µM and over 100 µM.
For `CN(CCO)c1ccc(N2Cc3ccccc3OC3=C2C(=O)c2c(O)ccc(O)c2C3=O)cn1`, in that order: 0.21 µM and 0.498 µM.
`COC(=O)[C@@H](C)C[C@H](Cc1ccccc1)NC(=O)c1csc([C@@H](C[C@H](C(C)C)N(C)C(=O)[C@@H](NC(=O)[C@H]2CCCCN2C)C2CCCCC2)OC(C)=O)n1`: the GI50 was 0.000354 µM and 0.0025 µM; the TGI is over 25 µM.
Consider `COc1ccc(CCNC(=O)c2ccc(NC3=C(Cl)C(=O)N(Cc4ccccc4)C3=O)cc2)cc1OC`, for which the GI50 was 11.8 µM and the TGI turned out to be 74.8 µM.
`OCc1ccn2c1[C@@H](O)CC2` came in with a TGI of over 100 µM.
For `CCOC(=O)c1c(NC(=O)c2cccc(C(F)(F)F)c2)sc2c(CN(C)C)c(O)ccc12`, the GI50 was 1.71 µM and the TGI was found to be 3.17 µM.

The subject of another assay is HS 578T breast. In words: NCI anticancer screen, dose series, 48 h.
As to `CCn1c(=O)c2c(=O)c3c4c(oc3oc2c2ccccc21)C(=O)c1ccccc1C4=O`, the GI50 was 19.2 µM and the TGI was over 100 µM.
With `NC(=O)c1cc(S(=O)(=O)Nc2nnc(-c3ccccc3)c(-c3ccccc3)n2)c(SCc2ccccc2)cc1Cl`, the GI50 is over 44.4 µM and the TGI is over 75.5 µM.
Turning to `Cc1cc(C)c(/C=C2\C(=O)Nc3ccc(NC(=O)CCCCCCC(=O)NO)cc32)[nH]1`, the GI50 was 2.96 µM and the TGI was over 100 µM.
For `C1=C\COCc2cc(ccc2OCCN2CCCC2)Nc2nccc(n2)-c2cccc(c2)COC/1`, in that order: 1.18 µM and 5.78 µM.
As for `COc1ccc(-c2coc3c4c(ccc3c2=O)OCO4)cc1OC`, the TGI is over 100 µM.
Regarding `CC(C)(S)C(N)C(=O)O` (stereo not drawn), the TGI was over 100 µM.
For the compound `O=C1c2ccccc2-c2c1c1ccccc1c(=O)n2CCCCl`, the GI50 was 17.6 µM and the TGI came to 73.5 µM.
Take `CN1C(=O)/C(=C/c2c(Cl)n(C)c3ccccc23)c2ccccc21`: the GI50 was 3.46 µM and 2.42 µM; the TGI was 9.29 µM and 5.34 µM.
As to `Cc1nc(-[n+]2nc(-c3ccncc3)nn2-c2ccccc2)sc1C`, the TGI was over 100 µM.
On to `COc1cc2c3c(n(CCCOC(=O)C(F)(F)F)c(=O)c2cc1OC)-c1cc2c(cc1C3=O)OCO2`, for which the GI50 is 52.7 µM and the TGI is over 100 µM.
For `CCOC(=O)/C=C(/C)Sc1cc(O)c2ccccc2c1O`, in that order: 2.26 µM and 6.58 µM.
In the case of `N=C(N)c1ccc2nc(-c3cc(CC(=O)N[C@@H](CC(=O)O)C(=O)O)cc(-c4cc(S(N)(=O)=O)ccc4O)c3O)[nH]c2c1`, the GI50 is over 100 µM and the TGI is over 100 µM.
Turning to `CN(CCO)c1ccc(N2Cc3ccccc3OC3=C2C(=O)c2c(O)ccc(O)c2C3=O)cn1`, the GI50 was 0.418 µM and the TGI is over 100 µM.
For the compound `COC(=O)[C@@H](C)C[C@H](Cc1ccccc1)NC(=O)c1csc([C@@H](C[C@H](C(C)C)N(C)C(=O)[C@@H](NC(=O)[C@H]2CCCCN2C)C2CCCCC2)OC(C)=O)n1`, the GI50 was 0.0026 µM.
Take `COc1ccc(CCNC(=O)c2ccc(NC3=C(Cl)C(=O)N(Cc4ccccc4)C3=O)cc2)cc1OC`: the GI50 is 4.62 µM and the TGI was over 100 µM.
Compound `OCc1ccn2c1[C@@H](O)CC2` had a TGI of over 100 µM.
For `CCOC(=O)c1c(NC(=O)c2cccc(C(F)(F)F)c2)sc2c(CN(C)C)c(O)ccc12`, the GI50 is 6.78 µM and the TGI worked out at 26.4 µM.

For a further assay, the system named is CAKI-1 renal. In words: NCI anticancer screen, dose series, 48 h.
In the case of `NC(=O)c1cc(S(=O)(=O)Nc2nnc(-c3ccccc3)c(-c3ccccc3)n2)c(SCc2ccccc2)cc1Cl`, the GI50 is over 100 µM and the TGI was over 100 µM.
Regarding `Cc1cc(C)c(/C=C2\C(=O)Nc3ccc(NC(=O)CCCCCCC(=O)NO)cc32)[nH]1`, the GI50 is over 100 µM and the TGI is over 100 µM.
For the compound `C1=C\COCc2cc(ccc2OCCN2CCCC2)Nc2nccc(n2)-c2cccc(c2)COC/1`, the GI50 is 0.971 µM and the TGI came out at 4.15 µM.
In turn, `COc1ccc(-c2coc3c4c(ccc3c2=O)OCO4)cc1OC` came in with a TGI of over 100 µM.
For `CC(C)(S)C(N)C(=O)O` (stereo not drawn), the GI50 was 983 µM; the TGI is 2570 µM and > 100 µM.
In the case of `O=C1c2ccccc2-c2c1c1ccccc1c(=O)n2CCCCl`, the GI50 was 3.63 µM and the TGI is 19.1 µM.
Regarding `CN1C(=O)/C(=C/c2c(Cl)n(C)c3ccccc23)c2ccccc21`, the GI50 was 3.3 µM and 1.43 µM; the TGI stood at 2.77 µM.
Turning to `Cc1nc(-[n+]2nc(-c3ccncc3)nn2-c2ccccc2)sc1C`, the TGI was over 100 µM.
For the compound `COc1cc2c3c(n(CCCOC(=O)C(F)(F)F)c(=O)c2cc1OC)-c1cc2c(cc1C3=O)OCO2`, the GI50 is under 0.01 µM.
Turning to `CCOC(=O)/C=C(/C)Sc1cc(O)c2ccccc2c1O`, the GI50 is 7.33 µM and the TGI worked out at 20 µM.
For `N=C(N)c1ccc2nc(-c3cc(CC(=O)N[C@@H](CC(=O)O)C(=O)O)cc(-c4cc(S(N)(=O)=O)ccc4O)c3O)[nH]c2c1`, in that order: over 100 µM and over 100 µM.
Regarding `COc1ccc(CCNC(=O)c2ccc(NC3=C(Cl)C(=O)N(Cc4ccccc4)C3=O)cc2)cc1OC`, the GI50 was 3.04 µM and the TGI is 9.11 µM.
`OCc1ccn2c1[C@@H](O)CC2` displayed a TGI of over 100 µM.
As to `CCOC(=O)c1c(NC(=O)c2cccc(C(F)(F)F)c2)sc2c(CN(C)C)c(O)ccc12`, the GI50 is 2.16 µM and the TGI was 5.07 µM.
